Measurements as given in US5053070A, “Pyrimidine derivatives, preparation processes thereof, herbicide containing the same, and herbicidal compositions containing the same along with other active ingredient” (Mitsui Toatsu Chemicals, Incorporated, priority 1988, dated 1991).
In brackets after ≈: the same amount, converted by molar mass.

Columns and labels:
Type in all cases: in vivo
barnyardgrass [1] = assay: Upland soil application test (Test 2); conditions: 30 g ai/a, soil spray before emergence, 30 days later
Procedure, shortened: (§1)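 Pre-emergence test in upland soil pots with weed seeds mixed into the soil; one day after seeding, wettable-powder formulation diluted in water and sprayed onto the soil surface at 10 l per are. Damage scored 30 days later from air-dried weight relative to untreated pots.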

common lambsquarters = assay: Upland soil application test (Test 2); conditions: 30 g ai/a, soil spray before emergence, 30 days later
Procedure, shortened: as §1

foxtail meadow = assay: Upland soil application test (Test 2); conditions: 30 g ai/a, soil spray before emergence, 30 days later
Procedure, shortened: as §1

green foxtail [2] = assay: Upland soil application test (Test 2); conditions: 30 g ai/a, soil spray before emergence, 30 days later
Procedure, shortened: as §1

johnsongrass = assay: Upland soil application test (Test 2); conditions: 30 g ai/a, soil spray before emergence, 30 days later
Procedure, shortened: as §1

large crabgrass = assay: Upland soil application test (Test 2); conditions: 30 g ai/a, soil spray before emergence, 30 days later
Procedure, shortened: as §1

redroot pigweed [3] = assay: Upland soil application test (Test 2); conditions: 30 g ai/a, soil spray before emergence, 30 days later
Procedure, shortened: as §1

cotton = assay: Upland soil application test (Test 2), crop injury; conditions: 30 g ai/a, soil spray before emergence, 30 days later
Procedure, shortened: (§2)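 Steps: fill pots with fertilized upland field soil containing uniformly mixed weed seed; sow crops and cover with 2-3 cm soil; after one day, spray the diluted wettable powder evenly over the soil at 10 l per are; assess at 30 days against untreated controls by dry weight.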

peanut = assay: Upland soil application test (Test 2), crop injury; conditions: 30 g ai/a, soil spray before emergence, 30 days later
Procedure, shortened: as §1

soybean = assay: Upland soil application test (Test 2), crop injury; conditions: 30 g ai/a, soil spray before emergence, 30 days later
Procedure, shortened: as §2

Sagittaria pygmaea = assay: Treatment of soil under submerged condition, pre-emergence (Test 4); conditions: 30 g ai/a granule, 30 days later
Procedure, shortened: (§3)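 Weeds were seeded or planted in submerged soil, with 2-3 leaf rice seedlings transplanted into the same pots. One day later, before weed emergence, a granule formulation of the test composition was applied. Weed damage and rice injury were scored 30 days after treatment.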

barnyardgrass [4] = assay: as above; conditions: 30 g ai/a granule, 30 days later
Procedure, shortened: as §3

bulrush = assay: as above; conditions: 30 g ai/a granule, 30 days later
Procedure, shortened: as §3

narrowleaf waterplantain = assay: Petri dish test (Test 6); conditions: 336 h; seeds on filter paper, 25° C., 14 days; read-out: I80 (ppm)
Procedure, shortened: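 Narrowleaf waterplantain seeds placed on filter paper pre-treated with compound in acetone (solvent air-dried) in 9 cm Petri dishes with 10 ml water, grown at 25° C in light. Growth was scored after fourteen days as degree of damage against an untreated group.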

barnyardgrass [5] = assay: Upland foliar application test by mixed formulations (Test 7); conditions: Echinochloa crus-galli, 720 h, applied alone, 30th day, read-out: Herbicidal effects (%) Barnyardgrass Ea; for pest or weed control at 300 g/ha: 0.3 kg/ha; for pest or weed control at 1000 g/ha: 1 kg/ha
Protocol: (§4) Resin-made 1/10,000-are pots were filled with the soil of an upland field. Redroot pigweed, morningglories, johnsongrass, barnyardgrass and green foxtail were separately seeded and were allowed to germinate in a green house. When each plant grew to the stage of 2-3 leaves, an emulsion formulated from predetermined amounts of two test compounds of different kinds in a similar manner to the method described in Formulation Example 16 was diluted with water to a predetermined dilution rate and then sprayed at an application rate equal to 5 l per are onto the foliage of each plant by means of a pressure-operated ULV (ultra low volume) sprayer. Influence to the weeds were observed on the 30th day after the spray of the herbicides. In the table, each Ea means an acutally measured value of herbicidal activities when two kinds of herbicides were mixed. Each Ec is an expected value for herbicidal activities, calculated in accordance with the below-described calculation formula proposed by Colby et al. [Colby, S. R., Weed 15, 20-22 (1967)]. Ea>Ec indicates the existence of synergistic action while […] action. [formula] Ec: Growth inhibition rate (%) expected when Ingredient I and Ingredient II are mixed.
(§5) Ex: Growth inhibition rate (%) when treated with Ingredient I alone.
(§6) Ey: Growth inhibition rate (%) when treated with Ingredient II alone.

green foxtail [6] = assay: as above; conditions: Setaria viridis, 720 h, applied alone, 30th day, read-out: Herbicidal effects (%) Green foxtail Ea; for pest or weed control at 300 g/ha: 0.3 kg/ha; for pest or weed control at 1000 g/ha: 1 kg/ha
Protocol: as §4, §5, §6

morningglories = assay: as above; conditions: Ipomoea, 720 h, applied alone, 30th day, read-out: Herbicidal effects (%) Morningglory Ea; for pest or weed control at 300 g/ha: 0.3 kg/ha; for pest or weed control at 1000 g/ha: 1 kg/ha
Protocol: as §4, §5, §6

redroot pigweed [7] = assay: as above; conditions: Amaranthus retroflexus, 720 h, applied alone, 30th day, read-out: Herbicidal effects (%) Redrood pigweed Ea; for pest or weed control at 300 g/ha: 0.3 kg/ha; for pest or weed control at 1000 g/ha: 1 kg/ha
Protocol: as §4, §5, §6

Structure (SMILES)	Herbicidal effects Barnyardgrass (barnyardgrass [1])	Herbicidal effects Common lambsquarters (common lambsquarters)	Herbicidal effects Foxtail meadow (foxtail meadow)	Herbicidal effects Green foxtail (green foxtail [2])	Herbicidal effects Johnsongrass (johnsongrass)	Herbicidal effects Large crabgrass (large crabgrass)	Herbicidal effects Redroot pigweed (redroot pigweed [3])	Injury Cotton (cotton)	Injury Peanut (peanut)	Injury Soybean (soybean)	Herbicidal effects Sagittaria Pygmaea (Sagittaria pygmaea)	Herbicidal effects Barnyardgrass (barnyardgrass [4])	Herbicidal effects Bulrush (bulrush)	IC80 (narrowleaf waterplantain) [µg/mL]	pest or weed control at 300 g/ha (barnyardgrass [5]) [%]	pest or weed control at 300 g/ha (green foxtail [6]) [%]	pest or weed control at 1000 g/ha (barnyardgrass [5]) [%]	pest or weed control at 1000 g/ha (green foxtail [6]) [%]	pest or weed control at 1000 g/ha (morningglories) [%]	pest or weed control at 1000 g/ha (redroot pigweed [7]) [%]	further results
COc1cc(OC)nc(Oc2ccccc2C=NOCC=Cc2ccccc2Br)n1 [compound 40]	5 (0-5 (Death))	4 (6-10 (Severe damages))	5 (0-5 (Death))	4 (6-10 (Severe damages))	4 (6-10 (Severe damages))	4 (6-10 (Severe damages))	5 (0-5 (Death))	0 (91-100 (No damages))	0 (91-100 (No damages))	0 (91-100 (No damages))	5 (0-5 (Death))	5 (0-5 (Death))	3 (11-40 (Medium damages))	2 (≈ 4.25 µM)	20	10					pest or weed control at 300 g/ha (morningglories): 0%; pest or weed control at 300 g/ha (redroot pigweed [7]): 20%
C#CCON=Cc1ccccc1Oc1nc(OC)cc(OC)n1 [Compound No. 13, 0-(2-propynyl)-2-(4,6-dimethoxy-2-pyrimidinyloxy)benzaldoxime]	5 (0-5 (Death))	4 (6-10 (Severe damages))	5 (0-5 (Death))	5 (0-5 (Death))	5 (0-5 (Death))	5 (0-5 (Death))	5 (0-5 (Death))	0 (91-100 (No damages))	0 (91-100 (No damages))	0 (91-100 (No damages))	4 (6-10 (Severe damages))	4 (6-10 (Severe damages))	5 (0-5 (Death))	5 (≈ 16 µM)			70	40	10	70	
COc1cc(OC)nc(Oc2ccccc2C=NOCc2cccc(C)c2)n1 [compound 20]	3 (11-40 (Medium damages))	4 (6-10 (Severe damages))	5 (0-5 (Death))	5 (0-5 (Death))	5 (0-5 (Death))	5 (0-5 (Death))	5 (0-5 (Death))	0 (91-100 (No damages))	0 (91-100 (No damages))	0 (91-100 (No damages))	4 (6-10 (Severe damages))	5 (0-5 (Death))	4 (6-10 (Severe damages))	100 (≈ 264 µM)	30	10					pest or weed control at 300 g/ha (morningglories): 10%; pest or weed control at 300 g/ha (redroot pigweed [7]): 30%
COc1cc(OC)nc(Oc2ccccc2C=NOCC=CCl)n1 [compound 11]	5 (0-5 (Death))	4 (6-10 (Severe damages))	5 (0-5 (Death))	5 (0-5 (Death))	5 (0-5 (Death))	5 (0-5 (Death))	5 (0-5 (Death))	0 (91-100 (No damages))	0 (91-100 (No damages))	0 (91-100 (No damages))	4 (6-10 (Severe damages))	4 (6-10 (Severe damages))	3 (11-40 (Medium damages))	40 (≈ 114 µM)			30	10	0	30	
COc1cc(OC)nc(Oc2ccccc2C=NOCc2ccccc2)n1 [Compound No. 15]	5 (0-5 (Death))	4 (6-10 (Severe damages))	5 (0-5 (Death))	5 (0-5 (Death))	5 (0-5 (Death))	4 (6-10 (Severe damages))	4 (6-10 (Severe damages))	0 (91-100 (No damages))	0 (91-100 (No damages))	0 (91-100 (No damages))	3 (11-40 (Medium damages))	4 (6-10 (Severe damages))	1 (71-90 (Slight damages))	100 (≈ 274 µM)			50	20	0	50	
COc1cc(OC)nc(Oc2ccccc2C=NOCCc2ccccc2)n1 [compound 23]	3 (11-40 (Medium damages))	4 (6-10 (Severe damages))	3 (11-40 (Medium damages))	3 (11-40 (Medium damages))	4 (6-10 (Severe damages))	3 (11-40 (Medium damages))	3 (11-40 (Medium damages))	0 (91-100 (No damages))	0 (91-100 (No damages))	0 (91-100 (No damages))	5 (0-5 (Death))	5 (0-5 (Death))	4 (6-10 (Severe damages))	100 (≈ 264 µM)							
